Patent US20250090576A1, “METHODS FOR TREATING NONTUBERCULOUS MYCOBACTERIA DISEASES” (Microbion Corporation, priority 2022, published 2025)

Tests used:
[1] = test system: M. abscessus cystic fibrosis patient strain 00703 in THP-1 macrophages; assay: Mycobacterial survival (CFU) in infected THP-1 macrophages; format: cell-based; settings: CF patient strain 00703; after 3 days; drugs at MIC
Procedure: (§1) THP-1 macrophages were differentiated with 50 ng/ml PMA for 24 hours, followed by 24 hours in media prior to infection. Differentiated THP-1 macrophages were either infected with M. avium strains or M. abscessus strains for 1 hour with an multiplicity of infection (MOI) of 5 or uninfected. Cells were washed twice, followed by 1 hour of antibiotic treatment with 200 μg/ml of amikacin to remove extracellular bacteria. After the antibiotic step, cells were washed once more and BisEDT (BIZ) or amikacin was added once to selected wells (see in vitro doses below).
(§2) The treatments included: vehicle, amikacin, Soluble BisEDT (S Biz), Insoluble BisEDT (I Biz), and amikacin+BisEDT. The time points for sample preparation were 72 h for M. abscessus strains and 4- and 7-days post infection for M. avium strains. At the indicated timepoints cell media was removed and replaced with 400 ul of 0.1% triton x-100 in H2O for lysis. Wells were pipetted 25 times to disrupt cells then diluted and plated for CFU enumeration.

[2] = test system: M. abscessus cystic fibrosis patient strain 01715 in THP-1 macrophages; assay: as above; format: cell-based; settings: CF patient strain 01715; after 3 days; drugs at MIC
Procedure: as §1, §2

[3] = test system: M. abscessus strain 19977 in THP-1 macrophages; assay: as above; format: cell-based; settings: after 3 days, drugs at MIC
Procedure: as §1, §2

[4] = test system: CF patient strain 00133 in THP-1 macrophages; assay: as above; format: cell-based, M. avium; settings: amikacin-resistant CF patient strain 00133; each of the BisEDT formulations; 4 and 7 days
Procedure: as §1, §2

[5] = test system: M. abscessus strains in THP-1 macrophages; assay: Infected THP-1 macrophages, summary over strains; format: cell-based; settings: 3 days post-treatment
Procedure: as §1, §2

[6] = test system: three clinical isolates of M. avium in macrophages; assay: Infected THP-1 macrophages, summary over strains; format: cell-based; settings: three clinical isolates of M. avium incl. amikacin-resistant isolate
Procedure: as §1, §2

[7] = test system: M. abscessus in THP-1 macrophages; assay: TEM of infected THP-1 macrophages (mechanism of action); format: cell-based; settings: 4 μg/ml insoluble BisEDT; 24 h and 48 h
Procedure: (§3) THP-1 macrophages were differentiated with 50 ng/ml PMA for 24 hours, followed by 24 hours in media prior to infection. Differentiated THP-1 macrophages were infected with M. avium or M. abscessus for 1 hour with a multiplicity of infection (MOI) of 10. Infected cells were washed twice, followed by 1 hour of antibiotic treatment with 200 μg/ml of amikacin to remove extracellular bacteria. After the antibiotic step, cells were washed once more and 4 μg/ml insoluble BisEDT (BIZ) was added to selected wells. The treatments included: (1) untreated, (2) untreated+infected with MAH 104, (3) untreated+infected with M. abscessus, (4) BIZ treated, (5) BIZ treated+infected with MAH 104, and (6) BIZ treated+infected with M. abscessus. The time points for sample preparation were 24 h and 48 h.p.i. Cells were not washed prior to transmission electron microscopy TEM sample preparation, to preserve any extracellular bacteria that may have been present. Cells were detached by treatment with 5 mM EDTA for […], quenched with 1×HBSS, and suspended in fixative buffer with 2.5% glutaraldehyde, 1% formaldehyde, and 0.1 M sodium cacodylate for 24 hours prior to submission to the electron microscopy facility for processing. Samples were sectioned, dehydrated, and visualized by a FEIT Titan 80-200 TEM/STEM microscope.

[8] = test system: M. avium (MAH 104) in THP-1 macrophages; assay: as above; format: cell-based; settings: 4 μg/ml insoluble BisEDT; 24 h and 48 h
Procedure: as §3

[9] = test system: M. abscessus strain 19977; assay: Chronic M. abscessus lung infection in SCID/Beige mice, inhalation treatment 28 days; format: in vivo; settings: for CFU count in lung homogenates, effect in words: inhaled
Procedure: A total of sixty female SCID/Beige mice between 6-8 weeks of age were used. Mice were placed up to 4 animals per cage and allowed 1 week of acclimation prior to infection.
Inoculums of M. abscessus strain 19977 (MAB) used in this study were made from highly virulent frozen stocks with low passage numbers. Bacteria were allowed to grow to log phase after 4 days on 7H10 media agar plates at 37° C. Once confluent, inoculums were made by suspending bacteria at 10^9 in Hank's balanced salt solution (HBSS) as determined by optical density (O.D.) and further quantified by serial dilution to determine the CFU/mL of suspension. At this higher concentration of bacteria, only 20 μL of inoculum was necessary to deposit […] bacteria per mouse.
On the day of infection mice were anesthetized with isoflurane by the drop jar method. Mice were scruffed in a standard one-handed grip and the nose of the mouse is held of a tube containing gauze containing a small amount of isoflurane. Mice were monitored for breathing and once rapid breaths have slowed down initially the mouse is removed from direct anesthesia and 20 μL of bacterial suspension was deposited on the left nostril. The mice then slowly breath in the droplet. Each mouse was then held in hand until complete consciousness was obtained and then the mouse was replaced into its home cage. After infection was initiated, 3 weeks were allowed to pass in order to allow the bacteria to establish a chronic lung pathology for eventual treatment.
After establishing each infection, 12 mice were euthanized the day before treatment began to determine the baseline bacterial load. Mice were euthanized using CO2 in accordance with the recommendations of the Guide for the Care and Use of Laboratory Animals (NRC 2011). Lungs and spleens were collected and homogenized then serial diluted for CFU enumeration.
A nose-only inhalation exposure chamber from CH technologies was used for this experiment. Mice were split into four treatment groups, Vehicle (buffer containing no BisEDT), amikacin (100 μg/kg/day), BisEDT “low” (200 μg/kg/day), and BisEDT “high” (1000 μg/kg/day). Each treatment group consisted of 12 mice. Ten of these mice were used for CFU determination and two mice are used for histology/pathology/lung pharmacokinetics. Treatment was conducted 6 days a week over the course of 28 days total. To create the correct level of deposited dose of each drug tested, 10 mL of test article were made. Amikacin in HBSS at 20 mg/mL was made and stored at 4° C. until needed. […]
After 28 days of treatment with BisEDT, animals were euthanized by Co2 and secondary cardiac puncture to collect whole blood for quantitation of BisEDT concentration. […] CFUs were determined after serial dilution. […]

[10] = test system: M. abscessus from lung homogenates; assay: Resistance plating of treated mouse lung homogenates on agar with 1 μg/ml BisEDT; format: cell-based; settings: mice treated with BisEDT for 28 days
Procedure: Lung homogenates from the M. abscessus […] infection were thawed from frozen at 37° C. for 2 hours. To reduce the effect of the Dey-Engley deactivation buffer, mouse homogenates were diluted 1:10 in water before replating samples onto 7H10 agar plates containing 1 μg/ml BisEDT (MIC level). Once plated samples were incubated at 37° C. over 3 days and plate colonies were counted to determine CFUs of resistance.
Colony forming units were compared from the initial plating with no BisEDT in the agar plates; to replating on agar plates containing 1 μg/mL BisEDT.

[11] = test system: M. abscessus isolates from murine lung homogenates; assay: MIC analysis of select bacterial isolates from murine lung homogenates; format: cell-based; settings: isolates from treated mouse lungs
[12] = Earlier 28-day tolerability work on rats; settings: 28 days, doses as high as

C1C[S][Bi]([S]CC[S][Bi]2[S]CC[S]2)[S]1 [BisEDT, bismuth-1,2-ethanedithiol]
mycobacterial survival (CFU, bacterial load) in THP-1 macrophages, in words [1]: greatly reduced bacterial load in macrophages | mycobacterial survival (CFU, bacterial load) in THP-1 macrophages, in words [2]: greatly reduced bacterial load in macrophages | mycobacterial survival (CFU, bacterial load) in THP-1 macrophages, in words [3]: reduced bacterial loads in THP-1 cells | mycobacterial survival (CFU) in THP-1 macrophages, in words [4]: bacteriostatic effect | effect in infected macrophages, in words [5]: bactericidal by itself | effect in infected macrophages, in words [6]: bactericidal | TEM observation on mycobacteria cell wall [7]: loss of the integrity of the polar region initially, and the whole cell wall in a more advanced stage | TEM observation on mycobacteria cell wall [8]: loss of the integrity of the polar region initially, and the whole cell wall in a more advanced stage | lung CFU response, in words ([9]; 200 and 1000 μg/kg/day inhaled): dose-dependent response | tolerability in infected mice ([9]; 200 and 1000 μg/kg/day inhaled, mice responsive, normal weight range): well tolerated | CFU count in lung homogenates, effect in words ([9]; BisEDT high, 1000 μg/kg): bactericidal | CFU count in lung homogenates, effect in words ([9]; BisEDT low, 200 μg/kg): bacteriostatic effect | development of resistance, in words [10]: little development of resistance | MIC of select isolates, in words [11]: did not show a change in resistance | dose with high tolerability, without adverse effects [12]: 59 µg/kg/day
